Drawing on PubChem BioAssay (NCI), this text covers TGI and GI50 for six compounds.

Among the test systems are DLD-1 colon; P388 leukemia; KM20L2 colon; M19-MEL melanoma; DMS 114 small cell lung; HOP-18 NSCLC; DMS 273 small cell lung; P388/ADR leukemia; SN12K1 renal; XF 498 CNS; RXF-631 renal.
Holding throughout (experiment): NCI tumour cell line growth inhibition, 48 h

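Step 1: Grow cells in 96-well plates. Step 2: Expose to compound for 48 hours at 5 concentrations. Step 3: Interpolate endpoints linearly; if unreached, use highest concentration. The concentration for 50% growth inhibition is given as GI50. Definition used: TGI = concentration required for complete inhibition of growth.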

With `O=C1Nc2ccccc2Nc2ccncc21`, the TGI in the assay on DLD-1 colon, in the assay on P388 leukemia, in the assay on KM20L2 colon, with M19-MEL melanoma, with DMS 114 small cell lung and in the assay on HOP-18 NSCLC was above 100 µM throughout. For the same compound, the TGI with DMS 273 small cell lung was above 100 µM; in the assay with P388/ADR leukemia it was above 31.6 µM; with SN12K1 renal it was above 100 µM.
Regarding `COc1cccc(/C=N/[N-]C(N)=O)c1[O-].[Cu+2].[OH3+].c1ccc(-c2ccccn2)nc1`, the GI50 in the assay on XF 498 CNS is 7.92 µM. The values for the TGI in the assay with XF 498 CNS and in the assay with KM20L2 colon were 19.9 µM and above 100 µM, respectively.
In the case of `O=C1C(CN2CCOCC2)CCCC1CN1CCOCC1` (configuration not stated), the TGI came to 1.83 µM in the assay with DLD-1 colon; 58.2 µM in the assay on KM20L2 colon; 17.3 µM in the assay on M19-MEL melanoma; 11.4 µM in the assay with DMS 114 small cell lung; 30.4 µM in the assay with RXF-631 renal; 3.2 µM in the assay with HOP-18 NSCLC. In the assay with DMS 273 small cell lung, this compound came in with a TGI of 19.4 µM.
Consider `CC(=O)[CH-]C(=O)c1ccccc1.CC(=O)[CH-]C(=O)c1ccccc1.C[C@]12CCC(=O)C=C1CC[C@@H]1C2CC[C@@]2(C)C1CC[C@]2(C)[O-].C[C@]12CCC(=O)C=C1CC[C@@H]1C2CC[C@@]2(C)C1CC[C@]2(C)[O-].Cl.[Ti+4]` (some centres not stated), for which the GI50 in the assay on DLD-1 colon is 12.2 µM; in the assay with M19-MEL melanoma, 26.5 µM; in the assay on HOP-18 NSCLC, 40 µM; with DMS 273 small cell lung, 17.4 µM. Further, the TGI with DLD-1 colon was 40.9 µM; in the assay with M19-MEL melanoma, above 100 µM; in the assay on HOP-18 NSCLC, above 100 µM; in the assay with DMS 273 small cell lung, 89.9 µM.
On to `Cc1cc(=O)[nH]c(NN2C(Cl)C(=O)C2c2cccc(Cl)c2)n1` (configuration not stated), for which the TGI in the assay on KM20L2 colon was above 100 µM; with M19-MEL melanoma it was above 100 µM; with DMS 114 small cell lung it was 54.8 µM; with HOP-18 NSCLC, 55.2 µM; with DMS 273 small cell lung, 33.9 µM.
`CCc1nc2ccc(NCCN(C)C)c3c(=O)c4ccccc4n1c23`: the TGI in the assay on DLD-1 colon amounted to 9.88 µM; in the assay with KM20L2 colon, 6.31 µM; with M19-MEL melanoma, 10.4 µM; in the assay with DMS 114 small cell lung, 14.8 µM; in the assay with HOP-18 NSCLC, 6.55 µM.
